In this assay the target is T1, human APJ receptor (Homo sapiens, UniProt P35414).
T1 construct: expressed in transfected cells; host or cells: HEK293
T1 sequence (P35414 1-380): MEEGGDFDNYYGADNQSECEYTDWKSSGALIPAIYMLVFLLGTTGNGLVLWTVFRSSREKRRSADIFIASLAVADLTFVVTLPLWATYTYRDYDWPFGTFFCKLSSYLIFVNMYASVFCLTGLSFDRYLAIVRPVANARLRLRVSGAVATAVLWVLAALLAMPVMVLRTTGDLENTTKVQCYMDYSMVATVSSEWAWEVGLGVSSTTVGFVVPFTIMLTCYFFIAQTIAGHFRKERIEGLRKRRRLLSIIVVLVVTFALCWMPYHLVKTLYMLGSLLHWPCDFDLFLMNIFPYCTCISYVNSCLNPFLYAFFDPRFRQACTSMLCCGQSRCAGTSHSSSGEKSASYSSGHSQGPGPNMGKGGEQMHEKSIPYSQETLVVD
The assay can be described thus: Intracellular cAMP Accumulation Assay (APJ hcAMP, HTRF). The class given is cell-based. As to conditions: human APJ, read-out: hAPJ cAMP EC50 Potency range. The procedure, abridged: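 Stably transfected HEK293 cells (5,000/well) incubated 30 min at room temperature with serially diluted compound, […] and 2 μM forskolin. cAMP measured by HTRF after 60 min with detection reagents, quantified against a cAMP standard curve; EC50 from variable-slope sigmoidal fit of inhibition of forskolin-stimulated cAMP.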
A general note: In TR-FRET formats the signal depends on donor and acceptor labels being close together.

The mark [1] stands for this setting: intracellular cAMP accumulation.
Setting [2] is: cAMP accumulation, potency range class.

This is an account of results in US10590113B2, “6-hydroxy-4-oxo-1,4-dihydropyrimidine-5-carboxamides as APJ agonists” (priority 2016, dated 2020).

In general, EC50 refers to the midpoint of the concentration-response curve.

Where two headings read alike, the source gives them in different places.

As for `CCCCc1nc(=O)c(C(=O)N2CC[C@H](c3ccccc3)C2)c(O)n1C(C)c1cccnc1` (stereo partly drawn) [Example 140, 2-butyl-6-hydroxy-5-[(3R)-3-phenylpyrrolidine-1-carbonyl]-3-[1-(pyridin-3-yl)ethyl]-3,4-dihydropyrimidin-4-one], under setting [1], the EC50 was 10 to 100 nM.
On to `CCCCc1nc(=O)c(C(=O)N2CC[C@H](c3ccccc3)C2)c(O)n1[C@@H](C)c1ccccc1` [Example 141, 2-butyl-6-hydroxy-3-[(1S)-1-phenylethyl]-5-[(3R)-3-phenylpyrrolidine-1-carbonyl]-3,4-dihydropyrimidin-4-one], for which the EC50 under setting [1] was 10 to 100 nM.
On the same count and under the same terms, to `CCCCc1nc(=O)c(C(=O)N2CC[C@H](c3ccccc3)C2)c(O)n1[C@H](C)C1CC1` [Example 142, 2-butyl-3-[(1R)-1-cyc1opropylethyl]-6-hydroxy-5-[(3R)-3-phenylpyrrolidine-1-carbonyl]-3,4-dihydropyrimidin-4-one] belongs 10 to 100 nM.
Still for that read-out and setting: under `CCCCc1nc(=O)c(C(=O)N2CC[C@@H](c3ccccc3)C2)c(O)n1[C@@H](C)c1ccc(F)cc1` [Example 143, 2-butyl-3-[(1S)-1-(4-fluorophenyl)ethyl]-6-hydroxy-5-[(3S)-3-phenylpyrrolidine-1-carbonyl]-3,4-dihydropyrimidin-4-one] stands 10 to 100 nM; under `CCCCc1nc(=O)c(C(=O)N2CC[C@@H](c3ccccc3)C2)c(O)n1C(C)c1cccnc1` (stereo partly drawn) [Example 146, 2-butyl-6-hydroxy-5-[(3S)-3-phenylpyrrolidine-1-carbonyl]-3-[1-(pyridin-3-yl)ethyl]-3,4-dihydropyrimidin-4-one], 10 to 100 nM; under `CCCCc1nc(=O)c(C(=O)N2CC[C@H](c3ccccc3)C2)c(O)n1C(C)c1ccncc1` (stereo partly drawn) [Example 148, 2-butyl-6-hydroxy-5-[(3R)-3-phenylpyrrolidine-1-carbonyl]-3-[1-(pyridin-4-yl)ethyl]3,4-dihydropyrimidin-4-one], 10 to 100 nM.
Take `CCCCc1nc(=O)c(C(=O)N2CC[C@@H](c3ccccc3)C2)c(O)n1[C@@H](C)c1cccc(C#N)c1` [Example 149, 3-[(1S)-1-{2-butyl-4-hydroxy-6-oxo-5-[(3S)-3-phenylpyrrolidine-1-carbonyl]-1,6-dihydropyrimidin-1-yl}ethyl]benzonitrile]: the EC50 under setting [1] fell in the range of 10 to 100 nM.
Still for that read-out and setting: under `CCCCc1nc(=O)c(C(=O)N2CC[C@H](c3ccccc3)C2)c(O)n1C(C)C` [Example 150, 2-butyl-6-hydroxy-5-[(3R)-3-phenylpyrrolidine-1-carbonyl]-3-(propan-2-yl)-3,4-dihydropyrimidin-4-one] stands 10 to 100 nM.
On the same count and under the same terms, under `CCCCc1nc(=O)c(C(=O)N2CC[C@@H](c3ccccc3)C2)c(O)n1[C@@H](C)c1ccccc1OC` [Example 151, 2-butyl-6-hydroxy-3-[(1S)-1-(2-methoxypheny)ethyl]-5-[(3S)-3-phenylpyrrolidine-1-carbonyl]-3,4-dihydropyrimidin-4-one] stands 10 to 100 nM; under `CCCCc1nc(=O)c(C(=O)N2CC[C@H](c3ccccc3)C2)c(O)n1[C@H](COC)c1ccccc1` [Example 152, 2-butyl-6-hydroxy-3-[(1S)-2-methoxy-1-phenylethyl]-5-[(3R)-3-phenylpyrrolidine-1-carbonyl]-3,4-dihydropyrimidin-4-one], 10 to 100 nM.
Same read-out and setting: under `CCCCc1nc(=O)c(C(=O)N2CC[C@@H](c3ccccc3)C2)c(O)n1[C@@H](CCC)c1ccccc1` [Example 153, 2-butyl-6-hydroxy-3-[(1S)-1-phenylbutyl]-5-[(3S)-3-phenylpyrrolidine-1-carbonyl]-3,4-dihydropyrimidin-4-one] stands 10 to 100 nM.
For `CCCCc1nc(=O)c(C(=O)N2CC[C@@H](c3ccccc3)C2)c(O)n1[C@H](COC)c1ccccc1` [Example 154, 2-butyl-6-hydroxy-3-[(1S)-2-methoxy-1-phenylethyl]-5-[(3S)-3-phenylpyrrolidine-1-carbonyl]-3,4-dihydropyrimidin-4-one], the EC50 under setting [1] lay in the range of 10 to 100 nM.
Still for that read-out and setting: to `CCCCc1nc(=O)c(C(=O)N2CC[C@@H](c3ccccc3)C2)c(O)n1[C@H](C)C1CC1` [Example 155, 2-butyl-3-[(1R)-1-cyclopropylethyl]-6-hydroxy-5-[(3S)-3-phenylpyrrolidine-1-carbonyl]-3,4-dihydropyrimidin-4-one] belongs 100 to 300 nM; to `CCCCc1nc(=O)c(C(=O)N2CC[C@H](c3ccccc3)C2)c(O)n1[C@@H](C)c1ccccc1OC` [Example 156, 2-butyl-6-hydroxy-3-[(1S)-1-(2-methoxyphenyl)ethyl]-5-[(3R)-3-phenylpyrrolidine-1-carbonyl]-3,4-dihydropyrimidin-4-one], 100 to 300 nM; to `CCCCc1nc(=O)c(C(=O)N2CC[C@H](c3ccccc3)C2)c(O)n1[C@@H](C)c1ccc(F)cc1` [Example 157, 2-butyl-3-[(1S)-1-(4-fluorophenyl)ethyl]-6-hydroxy-5-[(3R)-3-phenylpyrrolidine-1-carbonyl]-3,4-dihydropyrimidin-4-one], 100 to 300 nM.
Take `CCCCc1nc(=O)c(C(=O)N2CC[C@@H](c3ccccc3)C2)c(O)n1C(C)C` [Example 159, 2-butyl-6-hydroxy-5-[(3S)-3-phenylpyrrolidine-1-carbonyl]-3-(propan-2-yl)-3,4-dihydropyrimidin-4-one]: under setting [1], the half-maximal effective concentration (EC50) fell in the range of 100 to 300 nM.
Still for that read-out and setting: under `COc1cccc(OC)c1-n1c(CCC2CC2)nc(=O)c(C(=O)N2CC=C(c3ccc(Cl)cn3)C2)c1O` [Example 172, 5-[3-(5-chloropyridin-2-yl)-2,5-dihydro-1H-pyrrole-1-carbonyl]-2-(2-cyclopropylethyl)-1-(2,6-dimethoxyphenyl)-6-hydroxy-1,4-dihydropyrimidin-4-one] stands 0.01 to 10 nM; under `COc1cccc(OC)c1-n1c(CCC2CC2)nc(=O)c(C(=O)N2CCN(Cc3cccc(F)c3F)CC2)c1O` [Example 173, 2-(2-cyclopropylethyl)-5-{4-[(2,3-difluorophenyl)methyl]piperazine-1-carbonyl}-1-(2,6-dimethoxyphenyl)-6-hydroxy-1,4-dihydropyrimidin-4-one], 0.01 to 10 nM.
With `CCc1cccc(CC)c1-n1c(COC(C)C)nc(O)c(C(=O)N2CCC(c3ccc(Cl)nc3)CC2)c1=O` [Example 222, 5-[4-(6-chloropyridin-3-yl)piperidine-1-carbonyl]-3-(2,6-diethylphenyl)-6-hydroxy-2-[(propan-2-yloxy)methyl]-3,4-dihydropyrimidin-4-one], the EC50 under setting [2] was 100 to 300 nM.
For `COc1cccc(OC)c1-n1c(CC2CC2)nc(=O)c(C(=O)N2CCC(c3ccc(Cl)nc3)CC2)c1O` [Example 227, 5-[4-(6-chloropyridin-3-yl)piperidine-1-carbonyl]-2-(cyclopropylmethyl)-1-(2,6-dimethoxyphenyl)-6-hydroxy-1,4-dihydropyrimidin-4-one], the EC50 under setting [2] lay within 10 to 100 nM.
Same read-out and setting: to `COc1cccc(OC)c1-n1c(-c2csc(C)n2)nc(=O)c(C(=O)N2CCC(Oc3cccc(F)c3F)CC2)c1O` [Example 277, 5-[4-(2,3-difluorophenoxy)piperidine-1-carbonyl]-1-(2,6-dimethoxyphenyl)-6-hydroxy-2-(2-methyl-1,3-thiazol-4-yl)-1,4-dihydropyrimidin-4-one] belongs 0.01 to 10 nM; to `CCc1cccc(CC)c1-n1c(-c2ccn(C)n2)nc(=O)c(C(=O)N2CC[C@H](c3ccccc3)C2)c1O` [Example 283, 1-(2,6-diethylphenyl)-6-hydroxy-2-(1-methyl-1H-pyrazol-3-yl)-5-[(3R)-3-phenylpyrrolidine-1-carbonyl]-1,4-dihydropyrimidin-4-one], 0.01 to 10 nM; to `CCn1ccc(-c2nc(=O)c(C(=O)N3CC[C@H](c4ccccc4)C3)c(O)n2-c2c(OC)cccc2OC)n1` [Example 284, 1-(2,6-dimethoxyphenyl)-2-(1-ethyl-1H-pyrazol-3-yl)-6-hydroxy-5-[(3R)-3-phenylpyrrolidine-1-carbonyl]-1,4-dihydropyrimidin-4-one], 0.01 to 10 nM.
The same measure, in the same setting: under `CCc1cccc(CC)c1-n1c(-c2ccn(C)n2)nc(=O)c(C(=O)N2CC[C@@H](c3ccccc3)C2)c1O` [Example 285, 1-(2,6-diethylphenyl)-6-hydroxy-2-(1-methyl-1H-pyrazol-3-yl)-5-[(3S)-3-phenylpyrrolidine-1-carbonyl]-1,4-dihydropyrimidin-4-one] stands 0.01 to 10 nM; under `CCn1ccc(-c2nc(=O)c(C(=O)N3CC[C@@H](c4ccccc4)C3)c(O)n2-c2c(OC)cccc2OC)n1` [Example 286, 1-(2,6-dimethoxyphenyl)-2-(1-ethyl-1H-pyrazol-3-yl)-6-hydroxy-5-[(3S)-3-phenylpyrrolidine-1-carbonyl]-1,4-dihydropyrimidin-4-one], 0.01 to 10 nM; under `CCn1ccc(-c2nc(=O)c(C(=O)N3CC[C@@H](c4ccccc4)C3)c(O)n2-c2cccc(C(C)C)c2)n1` [Example 288, 2-(1-ethyl-1H-pyrazol-3-yl)-6-hydroxy-5-[(3S)-3-phenylpyrrolidine-1-carbonyl]-1-[3-(propan-2-yl)phenyl]-1,4-dihydropyrimidin-4-one], 0.01 to 10 nM.
On the same count and under the same terms, under `CCc1cccc(CC)c1-n1c(-c2ccn(C(C)C)n2)nc(=O)c(C(=O)N2CC[C@@H](c3ccccc3)C2)c1O` [Example 289, 1-(2,6-diethylphenyl)-6-hydroxy-5-[(3S)-3-phenylpyrrolidine-1-carbonyl]-2-[1-(propan-2-yl)-1H-pyrazol-3-yl]-1,4-dihydropyrimidin-4-one] stands 0.01 to 10 nM.
